Test results taken from patent publication US7771711B2, “Sphingolipids' polyalkylamines conjugates” (Yissum Research Development Company of The Hebrew …, priority 2003, dated 2010).
Structures can show the parent of a compound that is named as a salt.

Assays:
[1] = Electrostatics from dissociation curve of bilayer-incorporated hydroxycoumarin probes (HCPE, C17HC); assay type: physicochemical; conditions: for pKa C17HC: apparent pKa of hydroxycoumarin probe C17HC incorporated in the assemblies; for Surface potential C17HC / Surface potential HCPE: from shift of pKa of HC, Boltzmann equation; for Surface potential C17HC / Surface pH C17HC: probe C17HC; for pKa HCPE: apparent pKa of hydroxycoumarin probe HCPE incorporated in the assemblies; for Surface potential HCPE / Surface pH HCPE: probe HCPE
Procedure: The fluorescence excitation of the fluorophore 7-hydroxycoumarin (HC) moieties at 405 nm for HCPE and 380 nm for C17HC reflects the amount of the ionized species, while the excitation at 370 nm for HCPE and 330 nm for C17HC is the pH-independent isosbestic point, reflects the total amount of probe in the liposomes and micelles. Fluorescence emission was determined at 450 nm for all the above excitations. These two ratios (405/370 for HCPE, and 380/330 for C17HC) give the degree of ionization of HC fluoropore. The titration curve of HC, which is generated by plotting fluorescence excitation intensity ratio I405/I370 for HCPE and I380/I330 for C17HC at broad range of bulk pH, enables to calculate the apparent pKa of HC in HCPE and C17HC, respectively. The pKa of HC in the liposomal bilayer and/or in the micelles is calculated by fitting the above titration curve to the modified Henderson -Hasselbach equation, as described before [Zuidam & Barenholz (1997) ibid.]. The surface potential is then determined from the shift of pKa of HC that dramatically occurs in the strongly basic environment of cationic bilayer, according to the Boltzmann equation [Zuidam & Barenholz (1997) ibid.]

[2] = DPH fluorescence increase upon aggregation
Procedure: DPH dissolved in fetrahydrofuran was added at concentration of 0.25 ml %, to a range of concentrations of lipid dispersions and the fluorescence was recorded using 360 nm excitation and 430 nm emission on Perkin Elmer LS-50B. Then the fluorescence was plotted as function of lipid concentrations, and CMC point was detected as change of the slope of the curve by intersection of two straight lines above or below the CMC region.

[3] = ζ-potential by Zetasizer in 10 mM NaCl; assay type: physicochemical; conditions: 25° C., 10 mM NaCl (pH 6.7)
Procedure: Liposomes' and micelles' ζ-potential was measured at 25° C. by the mobility of the particles in the applied electrical field using a Zetasizer 3000 HAS, Malvern Instruments, Malvern, UK, by diluting an aliquot of 40 μL in 20 mL of 10 mM NaCl (pH 6.7) and passing the solutions before measurement through a 0.2-μm syringe filter (Minisart, Sartorius, Germany). ζ-potential reflects the electrical potential at the plane of sheer (further away from the actual surface), which is sensed by the HCPE and C17HC.

[4] = Assembly size by dynamic light scattering (ALV back scattering); assay type: physicochemical
[5] = base
[6] = Level of hydration by Laurdan excitation general polarization; assay type: physicochemical; conditions: 20 mM HEPES pH 7.4, 25° C.
Procedure: Hydration level of the different CCS-based lipid assemblies before and after the addition of plasmid DNA was determined by monitoring changes of “Laurdan excitation general polarization” according to which the higher the value obtained, the lower is the level of hydration.
6-Dodecanoyl-2-dimethylaminonaphthalene (Laurdan), purchased from Lambda (Graz, Austria), was used to follow changes in hydration level of the liposome bilayer. The naphthalene fluorophore of this probe is located at the hydrophilichydrophobic interface of the bilayer, and its 12-carbon chain is aligned parallel to the bilayer lipid acyl chains. When associated with lipids, Laurdan excitation and emission spectra depend strongly on the phase of the lipid. […] The lipid phases and level of hydration can be described by a Laurdan steady-state fluorescence parameter referred to as generalized polarization (GP) [Hirsch-Lerner D, Barenholz Y. Biochim Biophys Acta. […] Laurdan GP fluorescence spectra in lipid vesicles are dependent on the number of water molecules around the fluorescent moiety of Laurdan. Excitation GP was calculated according to the expression: GP340=(I440−I490)/(I440+I490) (1) where I440 and I490 are the intensities of fluorescence emission at wavelengths 440 and 490 nm and the excitation wavelength 340 nm. […]

[7] = Follow up (storage) assays of CCS lipid assemblies in HEPES pH 7.4 at 4° C.; assay type: physicochemical
Procedure: FIGS. 3A-3D show the results of the different follow up assays (follow up for 23 days). The follow up assay were based on TNBS test, which is a quantitative assay based on color reaction of TNBS reagent with primary amines.
The level of primary amines was determined with storage time in TNBS binding and described as % of freshly hydrated preparation. The change in Zeta potential, the change in the HCPE fluorescence 450 nm/370 mnm excitation ratio, and the change in size of the lipid assemblies (liposomes or micelles) formed was determined.
At 21 day, there were 6 time points of storage, which were assayed simultaneously for the following parameters: […]

[8] = listed as CCS Acetate (micelles)
[9] = listed as CCS Chloride (micelles)

In the case of `CCCCCCCCCCCCC/C=C/[C@@H](O)[C@H](COC(=O)NCCCNCCCCNCCCN)NC(=O)CCCCCCCCCCCCCCC` [CCS Acetate salt, N-palmitoyl D-erythro sphingosyl-1-carbamoyl spermine], the “pKa C17HC” value [1, 8] is reported as 4.75, the “Surface potential C17HC” value [1, 8] is reported as 245.8 mV and the “Surface pH C17HC” value [1, 8] is reported as 11.5. For the same compound, the “Critical Micelle Concentration (CMC)” value [2] was 5 µM, the ζ-potential [3, 8] was 40 and the “Assembly size, diameter (mass-weight)” value [4] was “micelles 6 nm;”.
With `CCCCCCCCCCCCC/C=C/[C@@H](O)[C@H](COC(=O)NCCCNCCCCNCCCN)NC(=O)CCCCCCCCCCCCCCC` [CCS Chloride salt, N-palmitoyl D-erythro sphingosyl-1-carbamoyl spermine] the “pKa C17HC” value [1, 9] was 5.61, the “pKa HCPE” value [1, 9] was 6.56 and the “Surface potential C17HC” value [1, 9] was 195.4 mV. For the same compound, the “Surface potential HCPE” value [1, 9] was 242.3 mV, the “Surface pH C17HC” value [1, 9] was 10.64 and the “Surface pH HCPE” value [1, 9] was 11.54. For the same compound, the “Critical Micelle Concentration (CMC)” value [2] was 5 µM, the ζ-potential [3, 9] was 46.5 and the “Assembly size, diameter (mass-weight)” value [4] was “micelles 25 nm;”.
In the case of `CCCCCCCCCCCCC/C=C/[C@@H](O)[C@H](COC(=O)NCCCNCCCCNCCCN)NC(=O)CCCCCCCCCCCCCCC` [CCS non-protonated, N-palmitoyl D-erythro sphingosyl-1-carbamoyl spermine], the “pKa HCPE” value [1] is reported as 7.23, the “Surface potential HCPE” value [1] is reported as 203.06 mV and the “Surface pH HCPE” value [1] is reported as 10.87. For the same compound, the ζ-potential [3] was 34.
In the case of `CCCCCCCCCCCCC/C=C/[C@@H](O)[C@H](COC(=O)NCCCNCCCCNCCCN)NC(=O)CCCCCCCCCCCCCCC` [CCS, N-palmitoyl D-erythro sphingosyl-1-carbamoyl spermine], the Solubility in ethanol [5] is reported as “exhibited”, the “Hydration state before addition of DNA (Laurdan GP)” value [6] is reported as “high hydration state” and the “Hydration state upon addition of DNA (Laurdan GP)” value ([6]; formation of lipoplexes) is reported as “become dehydrated”. The “Zeta potential during storage” value ([7]; HEPES buffer pH 7.4, 4° C., 23 days) was “no substantial change”, the “Change in time in diameter of lipid assemblies during storage” value ([7]; HEPES pH 7.4, 4° C.) was “remained relatively small” and the “Period of chemical stability of dispersions in aqueous phase” value ([7]; HEPES pH 7.4, 4° C.) was “at least 23 days”. For the same compound, the “Surface pH and electrical surface potential over storage (HCPE 405/370 excitation ratio)” value ([7]; HEPES pH 7.4, 4° C., entire period of storage) was “unchanged” and the “Level of primary amines upon storage (TNBS binding)” value ([7]; HEPES pH 7.4, 4° C., follow up for 23 days) was “no substantial change”.
